From patent US20110268794A1, “METHODS AND MATERIALS FOR DELIVERING BILE ACIDS” (priority 2009, published 2011)

Legend:
healthy volunteers [1] = experiment: Scintigraphic gastrointestinal and colonic transit, healthy volunteers (Example 1); type: in vivo, human; conditions: for AC t1/2 (ascending colon emptying) / CF 6 (colonic filling at 6 hours) / GC 4 (colonic geometric center at 4 h) / GC 6 (colonic geometric center at 6 h) / GC 8 (colonic geometric center at 8 h) / GC 48 (colonic geometric center at 48 h) / GC 24 (colonic geometric center at 24 h) / GE t1/2 (gastric emptying): N = 20, mean ± SEM; for GC 48 (colonic geometric center at 48 h): overall p < 0.0001; for GC 24 (colonic geometric center at 24 h): overall p = 0.01; for GE t1/2 (gastric emptying): methacrylate-coated capsule
Procedure: This was a double-blind, placebo-controlled, randomized study evaluating the effects of sodium chenodeoxycholate (CDC) or placebo orally administered once daily for four days in healthy volunteers.
Randomization was 1:1:1 for placebo, chenodeoxycholate 500 mg, and chenodeoxycholate 1000 mg. Sodium chenodeoxycholate was purchased from Calbiochem, EMD Chemicals Inc., and Mayo pharmacy prepared identical placebo and chenodeoxycholate capsules, all of which were coated with the pH sensitive polymer, methacrylate. The latter dissolves at the neutral pH found in the distal ileum and was used to ensure ileocolonic delivery of the chenodeoxycholate.
Three groups (n=20 each) were randomized to oral placebo, 500 mg or 1000 mg CDC daily (in pH-sensitive, methacrylate-coated capsules), each for a period of 4 days.
Gastrointestinal (GI) and colonic transit was conducted by a scintigraphic method (Burton et al., J. Nucl. Med., 38:1807-10 (1997); Cremonini et al., Aliment Pharmacol. Ther., 16:1781-90 (2002); and Camilleri and Zinsmeister, Gastroenterology, 103:36-42 (1992)) during the last 48 hours of drug ingestion (FIG. 1).
An adaptation of an established scintigraphic method was used to measure GI and colonic transit (Burton et al., J. Nucl. Med., 38:1807-10 (1997); Cremonini et al., Aliment Pharmacol. Ther., 16:1781-90 (2002); and Camilleri and Zinsmeister, Gastroenterology, 103:36-42 (1992)). ^111In was adsorbed on to activated charcoal particles and delivered to the colon by means of a methacrylate-coated, delayed-release oral capsule. The capsule was ingested following an overnight fast. After the capsule emptied from the stomach, a ^99mTc-sulfur colloid radiolabeled meal was ingested. It consisted of two scrambled eggs, one slice of whole wheat bread, and one glass of whole milk. This meal facilitates measurement of gastric and small bowel transit. Subjects ingested standardized meals for lunch and dinner at 4 and 8 hours after the radiolabeled meal, respectively. Abdominal scans were obtained every hour for the first 6 hours (the first 4 hours for the assessment of gastric emptying) and at 8, 24, and 48 hours after ingestion of the ^111In capsule. The performance characteristics of this test are summarized elsewhere (Cremonini et al., Aliment Pharmacol. Ther., 16:1781-90 (2002)).
The counts in the stomach and each of four colonic regions: ascending, transverse, descending, and combined sigmoid and rectum were quantitated with a variable region of interest program. Counts were corrected for isotope decay, tissue attenuation, and downscatter of ^111In counts in the ^99mTc window (Burton et al., J. Nucl. Med., 38:1807-10 (1997) and Cremonini et al., Aliment Pharmacol. Ther., 16:1781-90 (2002)).
Gastric emptying t1/2 is a measure of the time for 50% of the radiolabeled meal (identifiable by radiolabeled tracer) to empty from the stomach. Colonic filling at 6 hours, or the proportion of the radiolabeled meal to have reached the colon at 6 hours is an indirect measurement of small bowel transit time. Overall colonic transit was summarized as the colonic geometric center (GC) at specified times. The GC is the weighted average of counts in the different colonic regions [ascending (AC), transverse (TC), descending (DC), rectosigmoid (RS)] and stool, respectively 1 to 5. Thus, at any time, the proportion of counts in each colonic region is multiplied by its weighting factor as follows:
(% AC×1+% TC×2+% DC×3+% RS×4+% stool×5)/100=GC
Thus, a higher GC reflects a faster colonic transit. Ascending colon emptying was summarized by the t1/2 calculated by linear interpolation of values on the AC emptying curve.
The primary endpoints were the colonic GC at 24 hours (GC 24) and AC emptying t1/2.

healthy volunteers [2] = experiment: Adverse events, healthy volunteers (Example 1); type: in vivo, human
Procedure: This was a double-blind, placebo-controlled, randomized study evaluating the effects of sodium chenodeoxycholate (CDC) or placebo orally administered once daily for four days in healthy volunteers. An independent statistician generated the randomization code. Clinical and laboratory study personnel were blinded throughout the study until data were locked and analyzed. Safety monitoring was conducted throughout the study. Three groups (n=20 each) were randomized to oral placebo, 500 mg or 1000 mg CDC daily (in pH-sensitive, methacrylate-coated capsules), each for a period of 4 days.

[3] = 500 mg or 1000 mg once daily 4 days vs placebo, healthy volunteers
[4] = CDC 500 mg once daily 4 days, n=20
[5] = CDC 1000 mg once daily 4 days, n=20

In the case of `C[C@H](CCC(=O)O)[C@H]1CC[C@H]2[C@@H]3[C@H](O)C[C@@H]4C[C@H](O)CC[C@]4(C)[C@H]3CC[C@]12C` [CDC, sodium chenodeoxycholate], the “Treatment effect on colonic filling” value (healthy volunteers [1]; [3]) is reported as “not detected”, the “Treatment effect on gastric emptying” value (healthy volunteers [1]; [3]) is reported as “not detected” and the “AC t1/2 (ascending colon emptying)” value (healthy volunteers [1]; CDC 500 mg once daily 4 days) is reported as 12.1 ± 2.1 h. The “CF 6 (colonic filling at 6 hours)” value (healthy volunteers [1]; CDC 500 mg once daily 4 days) was 49.6 ± 7.0%, the “GC 4 (colonic geometric center at 4 h)” value (healthy volunteers [1]; CDC 500 mg once daily 4 days) was 0.87 ± 0.18 and the “GC 6 (colonic geometric center at 6 h)” value (healthy volunteers [1]; CDC 500 mg once daily 4 days) was 1.53 ± 0.28. For the same molecule, the “GC 8 (colonic geometric center at 8 h)” value (healthy volunteers [1]; CDC 500 mg once daily 4 days) was 1.83 ± 0.27, the “GC 48 (colonic geometric center at 48 h)” value (healthy volunteers [1]; CDC 500 mg once daily 4 days) was 4.10 ± 0.21 and the “GC 24 (colonic geometric center at 24 h)” value (healthy volunteers [1]; CDC 500 mg once daily 4 days) was 2.80 ± 0.27. For the same molecule, the “GE t1/2 (gastric emptying)” value (healthy volunteers [1]; CDC 500 mg oral once daily 4 days) was 2.115 ± 0.0883 h, the “AC t1/2 (ascending colon emptying)” value (healthy volunteers [1]; CDC 1000 mg once daily 4 days) was 10.7 ± 1.9 h and the “CF 6 (colonic filling at 6 hours)” value (healthy volunteers [1]; CDC 1000 mg once daily 4 days) was 46.0 ± 7.1%. The “GC 4 (colonic geometric center at 4 h)” value (healthy volunteers [1]; CDC 1000 mg once daily 4 days) was 1.27 ± 0.33, the “GC 6 (colonic geometric center at 6 h)” value (healthy volunteers [1]; CDC 1000 mg once daily 4 days) was 2.20 ± 0.43 and the “GC 8 (colonic geometric center at 8 h)” value (healthy volunteers [1]; CDC 1000 mg once daily 4 days) was 2.52 ± 0.39. For the same molecule, the “GC 48 (colonic geometric center at 48 h)” value (healthy volunteers [1]; CDC 1000 mg once daily 4 days) was 4.92 ± 0.05, the “GC 24 (colonic geometric center at 24 h)” value (healthy volunteers [1]; CDC 1000 mg once daily 4 days) was 3.76 ± 0.30 and the “GE t1/2 (gastric emptying)” value (healthy volunteers [1]; CDC 1000 mg oral once daily 4 days) was 2.383 ± 0.235 h. The Serious adverse events (healthy volunteers [2]; 500 mg or 1000 mg once daily 4 days, healthy volunteers) was “no serious adverse events”, the “Percent of participants dizzy, light-headed” value (healthy volunteers [2]; [4]) was 10% and the “Percent of participants with URI” value (healthy volunteers [2]; [4]) was 0%. For the same molecule, the “Percent of participants with diarrhea” value (healthy volunteers [2]; [4]) was 40%, the “Percent of participants with gas” value (healthy volunteers [2]; [4]) was 5% and the “Percent of participants with headache” value (healthy volunteers [2]; [4]) was 25%. For the same molecule, the “Percent of participants with loose stools” value (healthy volunteers [2]; [4]) was 15%, the “Percent of participants with lower abdo bloating” value (healthy volunteers [2]; [4]) was 5% and the “Percent of participants with lower abdo pain/cramps” value (healthy volunteers [2]; [4]) was 15%. The “Percent of participants with muscle aches” value (healthy volunteers [2]; [4]) was 5%, the “Percent of participants with nausea” value (healthy volunteers [2]; [4]) was 5% and the “Percent of participants with sensation of warmth” value (healthy volunteers [2]; [4]) was 5%. The “Percent of participants with sweating” value (healthy volunteers [2]; [4]) was 5%, the “Percent of participants dizzy, light-headed” value (healthy volunteers [2]; [5]) was 5% and the “Percent of participants with URI” value (healthy volunteers [2]; [5]) was 10%.
